Reference: patent publication US10730874B2 (Shire Human Genetic Therapies, Inc., priority 2018, dated 2020)

What follows are molecules tested against human activated kallikrein enzyme (plasma kallikrein) (Homo sapiens (Human), UniProt P03952) (assay: Inhibition of human activated plasma kallikrein, fluorogenic peptide substrate assay, 500 pM enzyme format). Conditions: 500 pM activated kallikrein enzyme, 300 uM Pro-Phe-Arg-7-amido-4-methylcoumarin substrate, 30 min preincubation, 10 min at RT; read-out: Primary Dose Response Assay: Average EC50.
Chain of human activated kallikrein enzyme (plasma kallikrein) (P03952 391-638): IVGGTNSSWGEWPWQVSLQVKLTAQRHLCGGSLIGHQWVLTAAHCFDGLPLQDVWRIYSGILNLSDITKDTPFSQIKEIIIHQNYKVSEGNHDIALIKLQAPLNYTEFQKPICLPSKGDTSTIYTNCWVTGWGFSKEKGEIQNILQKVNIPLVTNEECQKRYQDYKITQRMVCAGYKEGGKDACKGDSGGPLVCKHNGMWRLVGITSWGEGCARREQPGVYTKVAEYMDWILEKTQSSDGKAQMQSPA
Chain of human activated kallikrein enzyme (plasma kallikrein) (P03952 20-390 partner): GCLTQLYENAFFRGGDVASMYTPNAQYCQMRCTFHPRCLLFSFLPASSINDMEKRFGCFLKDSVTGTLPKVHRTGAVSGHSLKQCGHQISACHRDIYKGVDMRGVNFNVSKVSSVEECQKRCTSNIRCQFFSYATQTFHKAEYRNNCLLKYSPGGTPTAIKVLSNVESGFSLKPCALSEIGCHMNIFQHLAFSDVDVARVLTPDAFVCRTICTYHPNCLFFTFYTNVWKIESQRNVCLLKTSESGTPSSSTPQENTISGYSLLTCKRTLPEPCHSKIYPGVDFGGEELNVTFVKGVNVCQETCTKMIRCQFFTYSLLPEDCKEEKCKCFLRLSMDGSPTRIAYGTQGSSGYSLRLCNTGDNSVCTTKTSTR
Assay type: biochemical
How it was run: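 Buffer 20 mM Tris pH 7.5, EDTA, NaCl, PEG-400, Triton X-100; 300 uM Pro-Phe-Arg-AMC; enzyme–inhibitor preincubation 30 min RT. Format one: 500 pM kallikrein, 10 min RT reaction; format two: 5 pM kallikrein, 18 h RT reaction. Fluorescence read at 460 nm (380 nm excitation).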
With `CCOc1c(Cl)ccn2cnc(CNC(=O)c3cn(Cc4cn5cc(C6CC6)cc(CC6(C(=O)O)CCCC6)c5n4)nn3)c12` [Example I-221c, 1-((2-((4-(((7-chloro-8-ethoxyimidazo[1,5-a]pyridin-1-yl)methyl)carbamoyl)-1H-1,2,3-triazol-1-yl)methyl)-6-cyclopropylimidazo[1,2-a]pyridin-8-yl)methyl)cyclopentane-1-carboxylic acid] the EC50 was 10 to 100 nM.
With `NC(=O)c1cc(Cn2cc(C(=O)NCc3ncn4ccc(Cl)c(F)c34)nn2)cc2cc(C3CC3)cnc12` [Example I-275, 6-((4-(((7-chloro-8-fluoroimidazo[1,5-a]pyridin-1-yl)methyl)carbamoyl)-1H-1,2,3-triazol-1-yl)methyl)-3-cyclopropylquinoline-8-carboxamide] the EC50 was 10 to 100 nM.
With `COCc1nn(Cc2cn3cc(C4CC4)ccc3n2)cc1C(=O)NCc1ncn2ccc(Cl)cc12` [Example I-31, N-((7-chloroimidazo[1,5-a]pyridin-1-yl)methyl)-1-((6-cyclopropylimidazo[1,2-a]pyridin-2-yl)methyl)-3-(methoxymethyl)-1H-pyrazole-4-carboxamide] the EC50 was < 1 nM.
`O=C(NCc1ncn2ccc(Cl)cc12)c1cnn(Cc2nc3ccc(C4CC4)cn3n2)c1` [Example I-6, N-((7-chloroimidazo[1,5-a]pyridin-1-yl)methyl)-1-((6-cyclopropyl-[1,2,4]triazolo[1,5-a]pyridin-2-yl)methyl)-1H-pyrazole-4-carboxamide] showed an EC50 of 1 to 10 nM.
In the case of `O=C(NCc1ncn2ccc(Cl)cc12)c1cnn(Cc2cn3nc(C4CC4)ccc3n2)c1` [Example I-15, N-((7-chloroimidazo[1,5-a]pyridin-1-yl)methyl)-1-((6-cyclopropylimidazo[1,2-b]pyridazin-2-yl)methyl)-1H-pyrazole-4-carboxamide], the EC50 is reported as < 1 nM.
With `CC(C)(Cc1cc(C2CC2)cn2cc(Cn3cc(C(=O)NCc4ncn5ccc(Cl)cc45)nn3)nc12)C(=O)O` [Example I-170, 3-(2-((4-(((7-chloroimidazo[1,5-a]pyridin-1-yl)methyl)carbamoyl)-1H-1,2,3-triazol-1-yl)methyl)-6-cyclopropylimidazo[1,2-a]pyridin-8-yl)-2,2-dimethylpropanoic acid] the EC50 was < 1 nM.
With `O=C(NCc1ncn2ccc(Cl)cc12)c1cnn(Cc2cn3cccc(C4(CO)CC4)c3n2)c1` [Example I-117, N-((7-chloroimidazo[1,5-a]pyridin-1-yl)methyl)-1-((8-(1-(hydroxymethyl)cyclopropyl)imidazo[1,2-a]pyridin-2-yl)methyl)-1H-pyrazole-4-carboxamide] the EC50 was < 1 nM.
Molecule `CCOC(=O)CC(c1cn2cc(C3CC3)ccc2n1)n1cc(C(=O)NCc2ncn3ccc(Cl)c(F)c23)nn1` (stereo not drawn) [Example I-227a, ethyl 3-(4-(((7-chloro-8-fluoroimidazo[1,5-a]pyridin-1-yl)methyl)carbamoyl)-1H-1,2,3-triazol-1-yl)-3-(6-cyclopropylimidazo[1,2-a]pyridin-2-yl)propanoate] has an EC50 of 10 to 100 nM.
`O=C(NCc1ncn2ccc(Cl)cc12)c1cnn(Cc2cn3cc(C4CC4)cc(C(=O)O)c3n2)c1` [Example I-72, 2-((4-(((7-chloroimidazo[1,5-a]pyridin-1-yl)methyl)carbamoyl)-1H-pyrazol-1-yl)methyl)-6-cyclopropylimidazo[1,2-a]pyridine-8-carboxylic acid] gave an EC50 of 1 to 10 nM.
`O=C(NCc1ncn2ccc(Cl)cc12)c1cnn(Cc2cn3c(C4CC4)cccc3n2)c1` [Example I-22, N-((7-chloroimidazo[1,5-a]pyridin-1-yl)methyl)-1-((5-cyclopropylimidazo[1,2-a]pyridin-2-yl)methyl)-1H-pyrazole-4-carboxamide] gave an EC50 of 100 to 2000 nM.
In the case of `O=C(NCc1ncn2ccc(Cl)c(F)c12)c1cn(Cc2cn3cc(C4CC4)cc(C4CCOC4=O)c3n2)nn1` (stereo not drawn) [Example I-199, N-((7-chloro-8-fluoroimidazo[1,5-a]pyridin-1-yl)methyl)-1-((6-cyclopropyl-8-(2-oxotetrahydrofuran-3-yl)imidazo[1,2-a]pyridin-2-yl)methyl)-1H-1,2,3-triazole-4-carboxamide], the EC50 is reported as < 1 nM.
In the case of `O=C(NCc1ncn2ccc(Cl)c(F)c12)c1cn(Cc2cn3cc(C4CC4)cc(C4(F)COC4)c3n2)nn1` [Example I-167, N-((7-chloro-8-fluoroimidazo[1,5-a]pyridin-1-yl)methyl)-1-((6-cyclopropyl-8-(3-fluorooxetan-3-yl)imidazo[1,2-a]pyridin-2-yl)methyl)-1H-1,2,3-triazole-4-carboxamide], the EC50 is reported as < 1 nM.
`O=C(NCc1ncn2ccc(Cl)c(F)c12)c1cn(Cc2cn3cc(C4CC4)cc(Br)c3n2)nn1` [Example I-204, 1-((8-bromo-6-cyclopropylimidazo[1,2-a]pyridin-2-yl)methyl)-N-((7-chloro-8-fluoroimidazo[1,5-a]pyridin-1-yl)methyl)-1H-1,2,3-triazole-4-carboxamide] was tested, and the EC50 was < 1 nM.
`O=C(NCc1ncn2ccc(I)cc12)c1cnn(Cc2cn3cc(C4CC4)ccc3n2)c1` [Example I-45, 1-((6-cyclopropylimidazo[1,2-a]pyridin-2-yl)methyl)-N-((7-iodoimidazo[1,5-a]pyridin-1-yl)methyl)-1H-pyrazole-4-carboxamide] showed an EC50 of 1 to 10 nM.
Work on `O=C(NCc1ncn2ccc(Cl)cc12)c1cnc(Cc2cn3cc(C4CC4)ccc3n2)s1` [Example I-38, N-((7-chloroimidazo[1,5-a]pyridin-1-yl)methyl)-2-((6-cyclopropylimidazo[1,2-a]pyridin-2-yl)methyl)thiazole-5-carboxamide] yielded an EC50 of 1 to 10 nM.
`CC(c1cn2cc(C3CC3)ccc2n1)n1cc(C(=O)NCc2ncn3ccc(Cl)cc23)nn1` (stereo not drawn) [Example I-124, N-((7-chloroimidazo[1,5-a]pyridin-1-yl)methyl)-1-(1-(6-cyclopropylimidazo[1,2-a]pyridin-2-yl)ethyl)-1H-1,2,3-triazole-4-carboxamide] gave an EC50 of 1 to 10 nM.
`O=C(NCc1ncn2ccc(Cl)c(F)c12)c1cn(Cc2cn3cc(C4CC4)cc(N4CCOC4=O)c3n2)nn1` [Example I-216, N-((7-chloro-8-fluoroimidazo[1,5-a]pyridin-1-yl)methyl)-1-((6-cyclopropyl-8-(2-oxooxazolidin-3-yl)imidazo[1,2-a]pyridin-2-yl)methyl)-1H-1,2,3-triazole-4-carboxamide] was tested, and the EC50 was < 1 nM.
`O=C(O)c1cnn(Cc2cc(C3CC3)cn3cc(Cn4cc(C(=O)NCc5ncn6ccc(Cl)c(F)c56)nn4)nc23)c1` [Example I-193, 1-((2-((4-(((7-chloro-8-fluoroimidazo[1,5-a]pyridin-1-yl)methyl)carbamoyl)-1H-1,2,3-triazol-1-yl)methyl)-6-cyclopropylimidazo[1,2-a]pyridin-8-yl)methyl)-1H-pyrazole-4-carboxylic acid] was tested, and the EC50 was < 1 nM.
For `CC(C)(Oc1cc(C2CC2)cn2cc(Cn3cc(C(=O)NCc4ncn5ccc(Cl)c(F)c45)nn3)nc12)C(=O)O` [Example I-212, 2-((2-((4-(((7-chloro-8-fluoroimidazo[1,5-a]pyridin-1-yl)methyl)carbamoyl)-1H-1,2,3-triazol-1-yl)methyl)-6-cyclopropylimidazo[1,2-a]pyridin-8-yl)oxy)-2-methylpropanoic acid], the EC50 was < 1 nM.
With `COC(=O)c1c(Cn2cc(C(=O)NCc3ncn4ccc(Cl)c(F)c34)nn2)[nH]c2cc(C3CC3)ccc12` [Example I-272, methyl 2-((4-(((7-chloro-8-fluoroimidazo[1,5-a]pyridin-1-yl)methyl)carbamoyl)-1H-1,2,3-triazol-1-yl)methyl)-6-cyclopropyl-1H-indole-3-carboxylate] the EC50 was < 1 nM.
In the case of `N#Cc1cccc2nc(Cn3cc(C(=O)NCc4ncn5ccc(Br)cc45)cn3)cn12` [Example I-55, N-((7-bromoimidazo[1,5-a]pyridin-1-yl)methyl)-1-((5-cyanoimidazo[1,2-a]pyridin-2-yl)methyl)-1H-pyrazole-4-carboxamide], the EC50 is reported as 10 to 100 nM.
`CCOC(=O)C1(c2cccn3cc(Cn4cc(C(=O)NCc5ncn6ccc(Cl)cc56)cn4)nc23)CC1` [Example I-115, ethyl 1-(2-((4-(((7-chloroimidazo[1,5-a]pyridin-1-yl)methyl)carbamoyl)-1H-pyrazol-1-yl)methyl)imidazo[1,2-a]pyridin-8-yl)cyclopropane-1-carboxylate] was tested, and the EC50 was < 1 nM.
With `O=C(NCc1ncn2ccc(Cl)cc12)c1cnn(Cc2cn3cc(C4CC4)cc(C(F)(F)F)c3n2)c1` [Example I-143, N-((7-chloroimidazo[1,5-a]pyridin-1-yl)methyl)-1-((6-cyclopropyl-8-(trifluoromethyl)imidazo[1,2-a]pyridin-2-yl)methyl)-1H-pyrazole-4-carboxamide] the EC50 was < 1 nM.
`Cc1nnc(C)n1-c1cc(C2CC2)cn2cc(Cn3cc(C(=O)NCc4ncn5ccc(Cl)c(F)c45)nn3)nc12` [Example I-253, N-((7-chloro-8-fluoroimidazo[1,5-a]pyridin-1-yl)methyl)-1-((6-cyclopropyl-8-(3,5-dimethyl-4H-1,2,4-triazol-4-yl)imidazo[1,2-a]pyridin-2-yl)methyl)-1H-1,2,3-triazole-4-carboxamide] was tested, and the EC50 was < 1 nM.
`COC(=O)CCc1nn(Cc2cn3cc(C4CC4)ccc3n2)cc1C(=O)NCc1ncn2ccc(Cl)cc12` [Example I-65, methyl 3-(4-(((7-chloroimidazo[1,5-a]pyridin-1-yl)methyl)carbamoyl)-1-((6-cyclopropylimidazo[1,2-a]pyridin-2-yl)methyl)-1H-pyrazol-3-yl)propanoate] was tested, and the EC50 was < 1 nM.
In the case of `O=C(NCc1ncn2ccc(Cl)c(F)c12)c1cn(Cc2cn3cc(C4CC4)cc(COCCO)c3n2)nn1` [Example I-301, N-((7-chloro-8-fluoroimidazo[1,5-a]pyridin-1-yl)methyl)-1-((6-cyclopropyl-8-((2-hydroxyethoxy)methyl)imidazo[1,2-a]pyridin-2-yl)methyl)-1H-1,2,3-triazole-4-carboxamide], the EC50 is reported as < 1 nM.

Same assay, conditions: comparative compounds (Table II); assay format with 500 pM (500 μM in the source) activated kallikrein; read-out: Primary Dose Response Assay: Average EC50
For `COCc1nn(Cc2ccc(N3CCCC3)nc2)cc1C(=O)NCc1c(-n2cnnn2)ccc(OC)c1F` [reference compound], the EC50 was 1 to 10 nM.
